Results on eight compounds are retold here after patent publication US20190292179A1 (BRISTOL-MYERS SQUIBB COMPANY, priority 2016, published 2019).

One assay has as its target HIS-TGFβR2 WT (Homo sapiens, UniProt P37173). As to the kind of experiment: HTRF probe-displacement assay with HIS-TGFβR2 WT. The format is binding. The following applies: 1 nM HIS-TGFβR2 WT, labeled probe at Kd, 1 hour at room temperature. The essentials:
(§1)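 Binding read as HTRF probe displacement with 1 nM HIS-tagged kinase, 0.2 nM anti-HIS antibody, labelled probe at Kd and 0.5% DMSO, 1 h at room temperature (Ex 340, Em 520/495 nm). Eleven-point dose response normalised to no-enzyme and vehicle controls; IC50 from non-linear regression.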
A general note: In TR-FRET formats the signal depends on donor and acceptor labels being close together.

The target of another assay is T1, HIS-TGFβR1 T204D (Homo sapiens, UniProt P36897, T204D).
T1 sequence (P36897 34-503 T204D): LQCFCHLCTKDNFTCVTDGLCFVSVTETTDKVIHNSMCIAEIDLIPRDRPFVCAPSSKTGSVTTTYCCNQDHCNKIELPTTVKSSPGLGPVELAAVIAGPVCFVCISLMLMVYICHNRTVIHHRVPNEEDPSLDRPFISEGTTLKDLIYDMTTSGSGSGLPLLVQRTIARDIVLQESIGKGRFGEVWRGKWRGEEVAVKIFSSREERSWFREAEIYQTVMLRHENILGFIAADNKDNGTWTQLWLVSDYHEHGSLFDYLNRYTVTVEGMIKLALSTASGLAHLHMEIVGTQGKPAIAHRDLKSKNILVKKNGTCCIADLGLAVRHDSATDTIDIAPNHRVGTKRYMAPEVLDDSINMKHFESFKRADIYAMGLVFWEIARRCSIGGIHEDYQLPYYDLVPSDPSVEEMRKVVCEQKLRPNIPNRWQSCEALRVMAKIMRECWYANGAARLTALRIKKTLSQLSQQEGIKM
The experiment in a line: HTRF probe-displacement assay with HIS-TGFβR1 T204D. The format is binding. Particulars: 1 nM HIS-TGFβR1 T204D, labeled probe at Kd, 1 hour at room temperature. The essentials: as §1

HIS-TGFβR2 WT, sequence (P37173 23-567): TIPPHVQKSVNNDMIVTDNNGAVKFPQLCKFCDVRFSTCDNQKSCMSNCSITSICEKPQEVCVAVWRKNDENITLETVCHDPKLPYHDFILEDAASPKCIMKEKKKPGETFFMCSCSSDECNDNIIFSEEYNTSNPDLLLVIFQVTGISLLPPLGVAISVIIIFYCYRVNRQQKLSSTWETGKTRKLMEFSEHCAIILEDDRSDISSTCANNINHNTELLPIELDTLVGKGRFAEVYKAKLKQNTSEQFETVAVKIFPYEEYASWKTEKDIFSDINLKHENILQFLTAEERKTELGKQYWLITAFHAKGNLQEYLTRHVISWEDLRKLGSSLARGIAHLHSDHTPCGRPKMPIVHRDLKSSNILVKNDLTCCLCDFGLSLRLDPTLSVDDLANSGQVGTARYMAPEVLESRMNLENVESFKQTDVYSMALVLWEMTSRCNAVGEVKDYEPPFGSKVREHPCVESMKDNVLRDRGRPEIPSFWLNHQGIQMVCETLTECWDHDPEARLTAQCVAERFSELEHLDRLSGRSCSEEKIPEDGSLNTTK

As a reminder, the IC50 is the concentration that inhibits the measured activity by half. Read a low IC50 as greater potency. On to `Cc1cccc(-c2n[nH]c(C3CC3)c2-c2ccc3nccn3c2)n1` [Example 123, 6-(5-cyclopropyl-3-(6-methylpyridin-2-yl)-1H-pyrazol-4-yl)imidazo[1,2-a]pyridine], for which the values for the IC50 at HIS-TGFβR2 WT and at HIS-TGFβR1 T204D were 0.469 µM and 0.001 µM, respectively.

For `NC(=O)c1cnc2ccc(-c3c[nH]nc3-c3ccc(F)cc3)cn12` [Example 36, 6-(3-(4-fluorophenyl)-1H-pyrazol-4-yl)imidazo[1,2-a]pyridine-3-carboxamide], the values for the 50% inhibitory concentration (IC50) on HIS-TGFβR2 WT and on HIS-TGFβR1 T204D were 0.696 µM and 0.002 µM, respectively.

For the compound `CC(C)(O)c1cnc2ccc(-c3c[nH]nc3-c3ccc(F)cc3)cn12` [Example 59, 2-(6-(3-(4-fluorophenyl)-1H-pyrazol-4-yl)imidazo[1,2-a]pyridin-3-yl)propan-2-ol], the figures for the IC50 at HIS-TGFβR2 WT and at HIS-TGFβR1 T204D were 5.34 µM and 0.241 µM, respectively.

Take `N#Cc1cnc2ccc(-c3c[nH]nc3-c3ccc(Cl)cc3)cn12` [Example 46, 6-(3-(4-chlorophenyl)-1H-pyrazol-4-yl)imidazo[1,2-a]pyridine-3-carbonitrile]: the half-maximal inhibitory concentration (IC50) at HIS-TGFβR2 WT is 0.214 µM; on HIS-TGFβR1 T204D, 0.092 µM.

`NC(=O)c1cnc2ccc(-c3c[nH]nc3-c3cccc(C(F)(F)F)n3)cn12` [Example 2, 6-(3-(6-(trifluoromethyl)pyridin-2-yl)-1H-pyrazol-4-yl)imidazo[1,2-a]pyridine-3-carboxamide]: the concentration for half-maximal inhibition (IC50) amounted to 1.83 µM at HIS-TGFβR2 WT and 0.001 µM on HIS-TGFβR1 T204D.

Consider `Cn1cc(-c2ccc3ncc(C(N)=O)n3c2)c(-c2cccc(C(F)(F)F)n2)n1` [Example 10, 6-(1-methyl-3-(6-(trifluoromethyl)pyridin-2-yl)-1H-pyrazol-4-yl)imidazo[1,2-a]pyridine-3-carboxamide], for which the IC50 at HIS-TGFβR2 WT was 8.87 µM; at HIS-TGFβR1 T204D, 0.001 µM.

As for `CCc1[nH]nc(-c2cccc(C)n2)c1-c1ccc2ncc(C(N)=O)n2c1` [Example 125, 6-(5-ethyl-3-(6-methylpyridin-2-yl)-1H-pyrazol-4-yl)imidazo[1,2-a]pyridine-3-carboxamide], the half-maximal inhibitory concentration (IC50) came to 0.013 µM on HIS-TGFβR2 WT and 0.001 µM on HIS-TGFβR1 T204D.

Turning to `NC(=O)c1cnc2ccc(-c3c[nH]nc3-c3ccc(Cl)cc3)cn12` [Example 47, 6-(3-(4-chlorophenyl)-1H-pyrazol-4-yl)imidazo[1,2-a]pyridine-3-carboxamide], the concentration for half-maximal inhibition (IC50) on HIS-TGFβR2 WT worked out at 0.709 µM; at HIS-TGFβR1 T204D, 0.004 µM.
